For experiment [1], the target named is T1, Steryl-sulfatase (Homo sapiens) (UniProt P08842).
T1 sequence (whole entry): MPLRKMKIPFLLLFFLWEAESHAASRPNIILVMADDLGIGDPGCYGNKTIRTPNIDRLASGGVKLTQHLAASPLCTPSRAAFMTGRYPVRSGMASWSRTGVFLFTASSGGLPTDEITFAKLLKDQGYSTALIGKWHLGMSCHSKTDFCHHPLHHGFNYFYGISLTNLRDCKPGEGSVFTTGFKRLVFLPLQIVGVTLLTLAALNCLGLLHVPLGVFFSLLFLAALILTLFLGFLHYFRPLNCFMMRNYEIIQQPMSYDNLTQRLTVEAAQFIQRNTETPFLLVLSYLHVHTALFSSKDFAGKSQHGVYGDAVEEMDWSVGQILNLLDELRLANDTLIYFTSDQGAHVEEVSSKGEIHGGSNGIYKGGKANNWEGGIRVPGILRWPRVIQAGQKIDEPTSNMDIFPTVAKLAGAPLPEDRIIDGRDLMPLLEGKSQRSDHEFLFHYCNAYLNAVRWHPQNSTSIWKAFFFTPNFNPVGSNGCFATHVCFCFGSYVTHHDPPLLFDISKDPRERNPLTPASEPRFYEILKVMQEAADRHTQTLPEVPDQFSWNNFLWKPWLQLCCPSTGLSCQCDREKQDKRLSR
The experiment in a line: Relative potency compared to COUMATE against Estrone sulfatase.

In another experiment the target is T2, Steryl-sulfatase (Homo sapiens, UniProt P08842).
T2 sequence (P08842 whole entry): T1 sequence (whole entry)
The experiment is described as follows: Inhibition of Estrone sulfatase.

Experiment [2] has as its target T1, Steryl-sulfatase (Homo sapiens). The experiment in a line: Relative potency compared to EMATE against Estrone sulfatase.
For experiment [3] the target is unchanged.
Description: (§1) Relative potency against Estrone sulfatase
Experiment [4] has the same target. This is another data set of the same source.
Description: as §1
For experiment [5] the target is unchanged. The source holds these as a separate data set.

The IC50 is the concentration needed to halve the response being measured. Lower therefore signals higher potency. In the case of `CCCCCCCCC(=O)c1ccc(OS(N)(=O)=O)cc1`, the Potency was determined as 3.53 in experiment [1] and 0.147 in experiment [2]. In addition, the IC50 against Steryl-sulfatase came out at 3.4 µM.

As for `NS(=O)(=O)Oc1ccc(C(=O)/C=C/c2ccccc2)cc1`, the Potency was determined as 0.0456 in experiment [1] and 0.0019 in experiment [2]. At Steryl-sulfatase, the IC50 worked out at 263 µM.

Regarding `NS(=O)(=O)Oc1ccc(C(=O)Cc2ccccc2)cc1`, the Potency in experiment [1] amounted to 0.364; in experiment [2], 0.0152. The molecule also yielded an IC50 against Steryl-sulfatase of 33 µM.

Turning to `NS(=O)(=O)Oc1ccc(C=O)cc1`, the values for the Potency in experiment [1] and in experiment [2] were 0.0472 and 0.0019, respectively. Also, half-maximal inhibition on Steryl-sulfatase (IC50) required 254 µM.

For `CCCCCCCC(=O)c1ccc(OS(N)(=O)=O)cc1`, the results for the Potency in experiment [1] and in experiment [2] were 2.14 and 0.0893, respectively. Besides, on Steryl-sulfatase, the IC50 turned out to be 5.6 µM.

For `C[C@]12CC[C@@H]3c4ccc(OS(N)(=O)=O)cc4CCC3[C@@H]1CCC2=O` (single isomer, unassigned) [EMATE], the figures for the Potency in experiment [1] and in experiment [3] were 24 and 1, respectively. In addition, the IC50 at Steryl-sulfatase stood at 0.5 µM.

In the case of `CCCC(=O)c1ccc(OS(N)(=O)=O)cc1`, the Potency was determined as 0.301 in experiment [1] and 0.0126 in experiment [2]. The half-maximal inhibitory concentration (IC50) at Steryl-sulfatase is 39.8 µM.

The molecule `Cc1cc(=O)oc2cc(OS(N)(=O)=O)ccc12` yielded an IC50 on Steryl-sulfatase of 12 µM. Moreover, the Potency in experiment [4] stood at 1; in experiment [5], 0.0417.

As for `CCCCCCCCCC(=O)c1ccc(OS(N)(=O)=O)cc1`, the Potency was 0.923 in experiment [1] and 0.0385 in experiment [2]. Also, the IC50 against Steryl-sulfatase was determined as 13 µM.

As to `CCCCCCC(=O)c1ccc(OS(N)(=O)=O)cc1`, the Potency in experiment [1] was found to be 2.4; in experiment [2] it was 0.1. On Steryl-sulfatase, it took 5 µM to reach half-maximal inhibition (IC50).

On to `NS(=O)(=O)Oc1ccc(C(=O)c2ccccc2)cc1`, for which the Potency was 0.191 in experiment [1] and 0.0079 in experiment [2]. In addition, at Steryl-sulfatase, it took 63 µM to reach half-maximal inhibition (IC50).

As for `CC(=O)c1ccc(OS(N)(=O)=O)cc1`, the Potency was 0.0397 in experiment [1] and 0.0016 in experiment [2]. Besides, the IC50 on Steryl-sulfatase was 302 µM.

As to `CCCCC(=O)c1ccc(OS(N)(=O)=O)cc1`, the results for the Potency in experiment [1] and in experiment [2] were 0.574 and 0.0239, respectively. This molecule also returned an IC50 against Steryl-sulfatase of 20.9 µM.

The values above are taken from ChEMBL document CHEMBL1134001, “Novel inhibitors of the enzyme estrone sulfatase (ES)” (Bioorg Med Chem Lett, 2001).
